# From patent US20100099770A1, “METHOD FOR TREATING DIABETIC PERIPHERAL NEUROPATHIC PAIN” (SCHWARZ PHARMA AG, priority 2001, published 2010)
# “Also recorded” adds a separate entry of the source. Marks after values point to notes of the source that are not given here.
# What was measured:
# [1] = test system: neuropathic pain (CHUNG), tactile stimulation; test: Neuropathic pain (CHUNG) test, tactile stimulation on lesioned paw; assay type: in vivo, rat; settings: for FORCE INDUCING PAW-WITHDRAWAL, % change: compared with lesioned control; for FORCE INDUCING PAW-WITHDRAWAL, mean ± s.e.m.: lesioned paw
# From the text: (§1) The following Tables 8 and 9 show the effects of harkoseride (hereinafter referred tows SPM 927), carbamazepine, levetiracetam, gabapentin and morphine in the neuropathic pain (CHUNG) test in the rat. Eight (8) rats per group were used.
# [2] = test system: chronic constriction injury-induced thermal hyperalgesia; test: CCI model: thermal hyperalgesia (radiant heat withdrawal latency); assay type: in vivo, rat; settings: for Thermal hyperalgesia, withdrawal latency, Post-op + Drug: ligated hind paw, ±SEM
# Method: (§2) The effectiveness of harkoseride in reducing spontaneous chronic pain, mechanical allodynia, and thermal hyperalgesia was tested using the chronic constriction injury (CCI) model of peripheral neuropathy, one of the best characterised in vivo animal models used to study chronic pain due to peripheral nerve injury. In this model, loose ligatures are placed around the sciatic nerve, which produces axonal swelling and a partial deafferentation manifested as a significant but incomplete loss of axons in the distal portion of the peripheral nerve. One of the prominent behaviours seen following sciatic nerve ligation is the appearance of hind paw guarding, thought to be an indication of an ongoing spontaneous chronic pain. Support for this idea is derived from reports of increased spinal cord neural activity, and increased spontaneous neuronal discharge in spinothalamic tract neurons and in the ventrobasal thalamus in the absence of overt peripheral stimulation. In addition to the appearance of spontaneous pain behaviours, several abnormalities in stimulus evoked pain occur as a result of CCI, including thermal hyperalgesia and mechanical allodynia. The development of these abnormal stimulus-evoked pains has also been reported as occurring in areas outside the territory of the damaged nerve, areas innervated by uninjured nerves.
# (§3) Behavioural tests for spontaneous pain, thermal hyperalgesia, and mechanical allodynia were conducted to evaluate different components of neuropathic pain. Baseline data for each test was collected prior to any experimental procedure; in addition, all animals were tested for the development of chronic pain behaviours 13-25 days after CCI surgery 1 day prior to the day of vehicle (0.04 ml sterile water/10 g body weight) or drug administration and after vehicle/drug administration. The sequence of the tests was (1) spontaneous pain-related behaviour (2) mechanical allodynia, (3) thermal hyperalgesia in order to minimise the influence of one test on the result of the next. The testing procedures and results are presented separately for each aspect of chronic pain. Either 0 (vehicle, 0.04 ml/10 g body weight), 5, 10, 20 or 40 mg/kg of SPM 927 (n=7-23/group) was administered i.p. 15 minutes before the first behavioural test.
# Thermal hyperalgesia was assessed by means of withdrawal latency in response to radiant heat applied to the subplantar surface of the ligated rat hind paw. As compared to the baseline latency (s), a significant decrease in the (postoperative) latency of foot withdrawal in response to the thermal stimulus was interpreted as indicating the presence of thermal hyperalgesia following chronic constriction injury.
# [3] = test system: formalin-induced tonic inflammatory nociceptive behaviour; test: Formalin test, rat (weighted behavioural scoring); assay type: in vivo; settings: for Weighted pain score: score 0-3, ±SEM; for effect on formalin-induced nociceptive behaviour (in words): i.p. just prior to formalin, 5-40 mg/kg, late phase
# Method: The formalin test is a chemically-induced tonic pain model in which biphasic changes of nociceptive behaviour are assessed and spinal/supraspinal plasticity of nociception is considered as a molecular basis for neuropathic pain particularly during the second (=late) phase of the test, during which most clinically used drugs against neuropathic pain are active.
# The compound was tested for anti-nociceptive properties by use of the weighted behavioural scoring method: Freely moving animals underwent observational assessment of the position of the left hind paw according to a rating score scaled 0-3 before and 10, 20, 30 and 40 min after injection of 0.05 ml of sterile 2.5% formalin under the skin on the dorsal surface of the paw.
# [4] = test system: neuropathic pain (CHUNG), thermal stimulation; test: Neuropathic pain (CHUNG) test, thermal stimulation on lesioned paw; assay type: in vivo, rat; settings: for PAW-WITHDRAWAL LATENCY, % change: compared with lesioned control; for PAW-WITHDRAWAL LATENCY, mean ± s.e.m.: lesioned paw
# From the text: as §1
# [5] = test system: Carrageenan-induced mechanical hyperalgesia; test: Carrageenan-induced mechanical hyperalgesia, paw pressure (Randall-Sellito) test; assay type: in vivo, rats; settings: for nociceptive threshold: inflamed paw, 3 h after carrageenan
# Method: Carrageenan-induced mechanical hyperalgesia in rats was induced by subplantar injection of a 0.1 ml of a 2% carrageenan suspension and measured 3 h afterwards by the paw pressure (Randall-Sellito) test.
# Drugs and experimental design: SPM 927 and GBP were suspended in 1% methylcellulose and administered i.p. at doses of 10 mg/kg, 20 mg/kg and 40 mg/kg. Pre-treatment time was 30 min before pain measurement. One group of animals served as controls and consequently received an injection of solvent (10 ml/kg) and another group of animals received a reference compound (Carrageenan test: 10 mg/kg indomethacin; Formalin test: 10 mg/kg morphine). Each compound was tested in a separate experiment and each experiment included a control and a reference group. 10 rats per group were used in the Carrageenan test and 6 mice per group in the formalin test.
# [6] = test system: mechanical allodynia induced by unilateral nerve ligation; test: CCI model: mechanical allodynia (electronic Von Frey); assay type: in vivo, rat; settings: for Mechanical allodynia, pressure to elicit foot withdrawal, Post-op + Drug: ligated hind paw, ±SEM
# Method: as §2, §3
# Mechanical sensitivity and allodynia of the ligated rat hind paw was quantified by brisk foot withdrawal in response to normally innocuous mechanical stimuli as described previously. Responsiveness to mechanical stimuli was tested with a calibrated electronic Von Frey pressure algometer connected to an online computerised data collection system. A significant decrease in the post operative compared to baseline pressure (g/mm^2) necessary to elicit a brisk foot withdrawal in response to this mechanical stimulus is interpreted as mechanical allodynia.
# [7] = test system: spontaneous pain induced by unilateral chronic constriction injury; test: Chronic constriction injury (CCI, Bennett model): spontaneous pain; assay type: in vivo, rat; settings: for Spontaneous nociception, weighted pain score, Post-op + Drug: ligated paw, score 0-5, ±SEM
# Method: as §2, §3
# Spontaneous pain (ongoing pain without an apparent external stimulus) of the ligated paw was assessed for 5 min following a 10 min acclimation period by use of a rating score (weighted behaviour score scaled 0-5).
smiles,measurement,setting,value
"COC[C@@H](NC(C)=O)C(=O)NCc1ccccc1 [SPM 927, (R)-2-Acetamido-N-benzyl-3-methoxypropionamide]","FORCE INDUCING PAW-WITHDRAWAL, % change",[1]; 8 mg/kg i.p. -30 min,+56% (b)
same,"FORCE INDUCING PAW-WITHDRAWAL, mean ± s.e.m.",[1]; 8 mg/kg i.p. -30 min,27.2 ± 4.9 NS (b) g
same,"FORCE INDUCING PAW-WITHDRAWAL, % change",[1]; 16 mg/kg i.p. -30 min,+40% (b)
same,"FORCE INDUCING PAW-WITHDRAWAL, mean ± s.e.m.",[1]; 16 mg/kg i.p. -30 min,24.4 ± 3.0 NS (b) g
same,"FORCE INDUCING PAW-WITHDRAWAL, % change",[1]; 32 mg/kg i.p. -30 min,+116% (b)
same,"FORCE INDUCING PAW-WITHDRAWAL, mean ± s.e.m.",[1]; 32 mg/kg i.p. -30 min,37.6 ± 6.1 (b) g
same,comparison of effects in the CHUNG test (in words),"[1]; tactile and thermal stimulation, i.p.","minimum comparable, but usually more potent than the reference compounds"
same,"Thermal hyperalgesia, withdrawal latency, Post-op + Drug",[2]; 5 mg/kg i.p.,9.2 ± 0.98 s
same,"Thermal hyperalgesia, withdrawal latency, Post-op + Drug",[2]; 10 mg/kg i.p.,8.1 ± 0.59 s
same,"Thermal hyperalgesia, withdrawal latency, Post-op + Drug",[2]; 20 mg/kg i.p.,9.7 ± 0.96 s
same,"Thermal hyperalgesia, withdrawal latency, Post-op + Drug",[2]; 40 mg/kg i.p.,10.2 ± 0.75 s
same,effect on thermal hyperalgesia (in words),[2]; 5-40 mg/kg i.p.,dose dependently reduced
same,dose at which the maximum effect on thermal hyperalgesia is seen,[2]; i.p.,20 mg/kg
same,Weighted pain score,"[3]; 5 mg/kg i.p., 10 min after formalin",0.31 ± 0.11
same,Weighted pain score,"[3]; 5 mg/kg i.p., 20 min after formalin",0.78 ± 0.23
same,Weighted pain score,"[3]; 5 mg/kg i.p., 30 min after formalin",1.47 ± 0.20
same,Weighted pain score,"[3]; 5 mg/kg i.p., 40 min after formalin",1.46 ± 0.19
same,Weighted pain score,"[3]; 10 mg/kg i.p., 10 min after formalin",0.42 ± 0.17
same,Weighted pain score,"[3]; 10 mg/kg i.p., 20 min after formalin",0.33 ± 0.16
same,Weighted pain score,"[3]; 10 mg/kg i.p., 30 min after formalin",1.02 ± 0.27
same,Weighted pain score,"[3]; 10 mg/kg i.p., 40 min after formalin",1.05 ± 0.19
same,Weighted pain score,"[3]; 20 mg/kg i.p., 10 min after formalin",0.48 ± 0.18
same,Weighted pain score,"[3]; 20 mg/kg i.p., 20 min after formalin",0.57 ± 0.14
same,Weighted pain score,"[3]; 20 mg/kg i.p., 30 min after formalin",0.78 ± 0.18
same,Weighted pain score,"[3]; 20 mg/kg i.p., 40 min after formalin",1.02 ± 0.24
same,Weighted pain score,"[3]; 40 mg/kg i.p., 10 min after formalin",0.12 ± 0.05
same,Weighted pain score,"[3]; 40 mg/kg i.p., 20 min after formalin",0.10 ± 0.04
same,Weighted pain score,"[3]; 40 mg/kg i.p., 30 min after formalin",0.09 ± 0.06
same,Weighted pain score,"[3]; 40 mg/kg i.p., 40 min after formalin",0.12 ± 0.06
same,effect on formalin-induced nociceptive behaviour (in words),[3]; listed as Harkoseride,dose dependant reduction
same,effect on formalin-induced nociceptive behaviour (in words),[3]; listed as harkoseride,Significant and dose dependent efficacy
same,"PAW-WITHDRAWAL LATENCY, % change",[4]; 8 mg/kg i.p. -30 min,+60% (b)
same,"PAW-WITHDRAWAL LATENCY, mean ± s.e.m.",[4]; 8 mg/kg i.p. -30 min,26.1 ± 5.4 NS (b) sec
same,"PAW-WITHDRAWAL LATENCY, % change",[4]; 16 mg/kg i.p. -30 min,+3% b)
same,"PAW-WITHDRAWAL LATENCY, mean ± s.e.m.",[4]; 16 mg/kg i.p. -30 min,16.8 ± 4.5 NS (b) sec
same,"PAW-WITHDRAWAL LATENCY, % change",[4]; 32 mg/kg i.p. -30 min,+29% (b)
same,"PAW-WITHDRAWAL LATENCY, mean ± s.e.m.",[4]; 32 mg/kg i.p. -30 min,21.1 ± 5.6 NS (b) sec
same,nociceptive threshold,[5]; 10 mg/kg i.p. 30 min before measurement,324 ± 15^b
same,nociceptive threshold,[5]; 20 mg/kg i.p. 30 min before measurement,426 ± 24^b
same,nociceptive threshold,[5]; 40 mg/kg i.p. 30 min before measurement,444 ± 13^b
same,effect on Carrageenan-induced mechanical hyperalgesia (in words),"[5]; 10, 20, 40 mg/kg i.p.",full reversal; also recorded: comparable to that of the reference compound Indomethacin
same,"Mechanical allodynia, pressure to elicit foot withdrawal, Post-op + Drug",[6]; 5 mg/kg i.p.,21.8 ± 2.34 g/mm^2
same,"Mechanical allodynia, pressure to elicit foot withdrawal, Post-op + Drug",[6]; 10 mg/kg i.p.,29.2 ± 2.85 g/mm^2
same,"Mechanical allodynia, pressure to elicit foot withdrawal, Post-op + Drug",[6]; 20 mg/kg i.p.,39.6 ± 3.62 g/mm^2
same,"Mechanical allodynia, pressure to elicit foot withdrawal, Post-op + Drug",[6]; 40 mg/kg i.p.,43.0 ± 5.48 g/mm^2
same,effect on intensity of mechanical allodynia (in words),[6]; 5-40 mg/kg i.p.,dose dependently reduced
same,"Spontaneous nociception, weighted pain score, Post-op + Drug",[7]; 5 mg/kg i.p.,1.8 ± 0.18
same,"Spontaneous nociception, weighted pain score, Post-op + Drug",[7]; 10 mg/kg i.p.,1.5 ± 0.11
same,"Spontaneous nociception, weighted pain score, Post-op + Drug",[7]; 20 mg/kg i.p.,0.9 ± 0.14
same,"Spontaneous nociception, weighted pain score, Post-op + Drug",[7]; 40 mg/kg i.p.,0.8 ± 0.28
same,effect on level of spontaneous pain (in words),[7]; 5-40 mg/kg i.p.,did not change
